In ChEMBL document CHEMBL1201862, “PubChem BioAssay data set” (2004):
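Step 1: Grow cells in 96-well plates. Step 2: Expose to compound for 48 hours at 5 concentrations. Step 3: Interpolate endpoints linearly; if unreached, use highest concentration. At the GI50, growth is halved.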 The source made the active and inactive calls. Rule as the data show it: active = GI50 up to about 1.1 µM and inactive = higher.

Key:
Test in all cases: inhibition of tumour cell growth, NCI panel, 48 h
DMS-114 = system: DMS-114
HOP-18 = system: HOP-18
KM-20L2 = system: KM-20L2
LXFL 529 = system: LXFL 529
XF498 = system: XF498
DLD-1 = system: DLD-1
RXF 631 = system: RXF 631
BT-549 = system: BT-549
T47D = system: T47D

Measured: GI50

Cc1nc2cc3nc4ccccc4c(O)c3cc2s1
inactive: DMS-114 > 100 µM | HOP-18 16.7 µM | KM-20L2 > 100 µM | LXFL 529 > 100 µM | XF498 > 100 µM

CCOC(=O)C(=O)Nc1c(C(C)C)cccc1C(C)C
inactive: DLD-1 > 100 µM | DMS-114 > 100 µM | HOP-18 > 100 µM | KM-20L2 > 100 µM | LXFL 529 > 100 µM | RXF 631 > 100 µM | XF498 54.6 µM

CCC1C(=O)OCc2c1cc1n(c2=O)CCC12OCCO2 (configuration not stated)
inactive: DLD-1 > 100 µM | DMS-114 > 100 µM | KM-20L2 > 100 µM | LXFL 529 > 100 µM | XF498 > 100 µM

COC(=O)C(CC(=O)Nc1ccc(C)cc1)C(=O)C(=O)Nc1c(C(C)C)cccc1C(C)C (configuration not stated)
inactive: DLD-1 > 100 µM | DMS-114 > 100 µM | KM-20L2 > 100 µM | LXFL 529 99.1 µM | RXF 631 > 100 µM | XF498 > 100 µM

O=[N+]([O-])c1cc(I)cc(/C=N/NS(=O)(=O)c2ccc(F)cc2)c1O
inactive: DLD-1 36.5 µM | DMS-114 24.2 µM | HOP-18 19.7 µM | KM-20L2 29.8 µM | LXFL 529 20.7 µM | RXF 631 23.7 µM

CC(=O)CCn1ncc(Cl)c(Cl)c1=O
inactive: DLD-1 11.2 µM | HOP-18 16.6 µM | KM-20L2 16.5 µM | LXFL 529 13.4 µM | XF498 19.7 µM

O=[N+]([O-])c1ccc(NSc2ccccc2)cc1
inactive: DLD-1 24.8 µM | DMS-114 21 µM | HOP-18 > 100 µM | KM-20L2 31.8 µM | LXFL 529 14.3 µM | XF498 31.1 µM

O=S1(=O)CSc2ccc3ccccc3c2-c2c1ccc1ccccc21
inactive: DLD-1 > 100 µM | DMS-114 > 100 µM | HOP-18 > 100 µM | LXFL 529 > 100 µM | RXF 631 > 100 µM | XF498 > 100 µM

COc1ccc(CCn2c(=O)c3ccccc3n(C)c2=O)cc1
inactive: DLD-1 28.6 µM | DMS-114 11.2 µM | KM-20L2 63.4 µM | LXFL 529 26.1 µM | XF498 37.2 µM

COc1cc(C(N)=O)c(OC)c(OC)c1OC
inactive: DLD-1 > 100 µM | DMS-114 > 100 µM | KM-20L2 > 100 µM | LXFL 529 > 100 µM | RXF 631 > 100 µM

Nc1c(S(=O)(=O)c2ccc(Cl)cc2)c2nc3ccccc3nc2n2ccnc12
inactive: DLD-1 > 100 µM | DMS-114 54 µM | HOP-18 22.8 µM | LXFL 529 > 100 µM | XF498 65.8 µM

[O-][S+]1c2ccccc2N=C(c2ccc3ccccc3c2)CC1c1ccccc1F (configuration not stated)
inactive: DLD-1 > 100 µM | DMS-114 > 100 µM | HOP-18 > 100 µM | KM-20L2 > 100 µM | LXFL 529 > 100 µM | RXF 631 > 100 µM | XF498 > 100 µM

COc1c(Cl)cc(NC(=S)C#N)cc1Cl
inactive: BT-549 16.6 µM | DLD-1 31.7 µM | DMS-114 15.6 µM | HOP-18 8.53 µM | KM-20L2 20.1 µM | LXFL 529 22.2 µM | RXF 631 19.7 µM | T47D 12.6 µM

COC1C2C=CC(C2)[C@H]1[N+](=O)[O-] (some centres not stated)
inactive: DLD-1 > 100 µM | DMS-114 > 100 µM | KM-20L2 > 100 µM | LXFL 529 > 100 µM | RXF 631 > 100 µM

O=C(Cc1nc2ccccc2c(=O)n1-c1ccccc1Cl)c1ccncc1
inactive: DLD-1 > 100 µM | DMS-114 > 100 µM | HOP-18 > 100 µM | KM-20L2 > 100 µM | LXFL 529 > 100 µM | RXF 631 > 100 µM
